Laboratory results reported in patent US20230346878A1, “Treatment of Abdominal Pain Associated with Diarrhea-Predominant Irritable Bowel Syndrome” (Ironwood Pharmaceuticals, Inc., priority 2019, published 2023).
Where a SMILES comes first, the peptide text is derived from it. Bridges are numbered along the chain shown (N, C = ends).

Assay: Phase 1 study of linaclotide DR2: PK in plasma and inspection of stool for intact tablets
Format: in vivo, human
Description: Delayed release “DR2” linaclotide tablets were administered in a double-blind, placebo-controlled Phase 1 study randomized healthy adult volunteers at dosing levels of 300 μg, 1200 μg, and 3000 μg or placebo for 7 days. Safety and tolerability were assessed at each dose and prior to escalation to the highest dose. Gastrointestinal pharmacodynamics (“PD”) assessments included change from baseline (CFB) in bowel movement frequency (Spontaneous bowel movement [SBM]/week) and stool consistency (Bristol stool form scale [BSFS]). To confirm release of linaclotide, all of the subject's stools were inspected for intact DR2 tablets.
PK assessments were conduct through blood determination of linaclotide and its metabolite in plasma, and feces for the determination of linaclotide and its metabolite in stool, were collected from all dosed subjects during the Clinic Period.

With C[C@@H]1NC(=O)[C@@H]2CCCN2C(=O)[C@H](CC(N)=O)NC(=O)[C@@H]2CSSC[C@H](N)C(=O)N[C@H]3CSSC[C@H](NC1=O)C(=O)N[C@@H]([C@@H](C)O)C(=O)NCC(=O)N[C@H](C(=O)N[C@@H](Cc1ccc(O)cc1)C(=O)O)CSSC[C@H](NC(=O)[C@H](Cc1ccc(O)cc1)NC(=O)[C@H](CCC(=O)O)NC3=O)C(=O)N2 [Linaclotide, linaclotide] (H-CCEYCCNPACTGCY-OH; disulfide 1-6, 2-10, 5-13 (inferred)) the “systemic absorption / exposure” value (DR2 tablets orally for 7 days) was “minimally absorbed with negligible systemic exposure” and the detection in plasma (following 7 days of oral administration of DR2) was “Neither linaclotide nor its active metabolite were detected”.
